Assays:
Test in all cases: Direct binding Salmonella assay (chemiluminescence immunosorbent)
S. aberdeen = test system: S. aberdeen
Procedure: (§1) After 5 hours of culture, a 2 ml aliquot of the sample was removed and SDS was added to a final concentration of 0.5% (w/v). The sample was heated to 100° C. for 5 minutes and allowed to cool. One hundred microlitres of each test sample was added directly to a well of a solid white 96 well high binding microtitre plate (Greiner Bio One) and incubated at 37° C. for 30 minutes. During incubation, the lipid A portion of the LPS binds to the surface of the plate via non-covalent hydrophobic interactions (FIG. 1a (1), FIG. 1b(1)).
(§2) The final concentration of antibody per well was 50 ng. The plate-bound sample (Salmonella LPS/core oligosaccharide) and antibody were incubated in the coated wells for 30 minutes as 37° C. Following incubation, plates were washed three times in wash buffer and pat dried prior to detection (FIG. 1a(2), FIG. 1b(2)).
(§3) When the anti-Salmonella is directly labelled with acridinium ester, plates were placed into a luminometer. 30 μl of trigger solution A and 60 μl of trigger solution B was added to each well of the microtitre plate to initiate light output from conjugated acridinium ester (FIG. 1a(3)). The luminometer settings were as follows:
(§4) When the anti-Salmonella antibody is not labelled, a second binding member, a goat anti-mouse IgG2b conjugate is used. Post column IgG2b was diluted 1:100 in a diluent comprising 3% (w/v) non-fat milk powder and 0.05% (v/v) Tween 20 and 100 ul of this solution was added to each well of the plate (FIG. 1b(3)). Following incubation at 37° C. for 60 minutes the plate was washed four times in wash buffer, dried and read as above (FIG. 1b(4)).
The wells of an assay plate are coated with standard concentrations of bacteria for 1 hour at 37° C. These standard concentrations are: 10^6, 10^5, 5×10^4, 2.5×10^4, 10^4 and 5×10^3 and blank wells containing 10^6 E. coli. The fractions to be tested are diluted 1:100 in assay buffer and […] is added to each well and incubated at 37° C. for 20 minutes. The wells are then read on the luminometer, as above.

E. coli = test system: E. coli
L. innocua = conditions: 10^6 L. innocua
Procedure: as §1, with “The” for “After 5 hours of culture, a 2 ml aliquot of the sample was removed and SDS was added to a final concentration of 0.5% (w/v). The”
as §2, §3, §4
Monoclonal antibody (1:100 dilution) was incubated with either Salmonella or Listeria to determine optimum incubation times:
Monoclonal antibody (1:200 dilution) was incubated with either Salmonella or Listeria to determine optimum incubation times: […]

Q: How did the “signal, direct binding Salmonella assay” value (S. aberdeen; 0.5% SDS (second block), conjugate 1:100, 5 × 10^4 S. aberdeen, black and white plates) turn out when `CCCCCCCCCCCCOS(=O)(=O)[O-].[Na+]` [SDS, sodium dodecyl sulphate] was run?
A: 2,213 ± 170

Q: And the “signal, release and detection of core oligosaccharide” value (from here on “signal, release and detection”) (S. aberdeen; 0.5% SDS, 10^4 bacteria (species not given))?
A: 495603 relative light units

Q: And the “enhancement of binding between binding member (antibody) and epitope” value (S. aberdeen; direct assay)?
A: ≤ 10 fold

Q: What about the “signal, direct binding Salmonella assay” value (E. coli; 0% SDS, conjugate 1:100, 10^6 E. coli, black and white plates) of the same compound?
A: 579 ± 37

Q: What about the “signal, direct binding Salmonella assay” value (E. coli; 0.1% (w/v) SDS, conjugate 1:100, 10^6 E. coli, white plate, Lucy I) of the same compound?
A: 4,151 ± 256^

Q: And the “signal, direct binding Salmonella assay” value (E. coli; 0.1% SDS (first block), conjugate 1:100, 10^6 E. coli, black and white plates)?
A: 579 ± 37

Q: What about the “signal, direct binding Salmonella assay” value (E. coli; 0.1% SDS (second block), conjugate 1:100, 10^6 E. coli, black and white plates) of the same compound?
A: 658 ± 108

Q: What about the “signal, direct binding Salmonella assay” value (E. coli; 0.2% (w/v) SDS, conjugate 1:100, 10^6 E. coli, white plate, Lucy I) of the same compound?
A: 3,322 ± 479

Q: And the “signal, direct binding Salmonella assay” value (E. coli; 0.3% SDS, conjugate 1:100, 10^6 E. coli, white plate, Lucy I)?
A: 2,491 ± 107

Q: And the “signal, direct binding Salmonella assay” value (E. coli; 0.4% SDS, conjugate 1:100, 10^6 E. coli, white plate, Lucy I)?
A: 3,197 ± 5

Q: What about the “signal, direct binding Salmonella assay” value (E. coli; 0.5% (w/v) SDS (first block), conjugate 1:100, 10^6 E. coli, black and white plates) of the same compound?
A: 684 ± 88

Q: And the “signal, direct binding Salmonella assay” value (E. coli; 0.5% (w/v) SDS, conjugate 1:50, E. coli 10^6, black and white plate, tube luminometer)?
A: 958 ± 242

Q: What about the “signal, direct binding Salmonella assay” value (E. coli; 0.5% SDS (second block), conjugate 1:100, 10^6 E. coli, black and white plates) of the same compound?
A: 714 ± 74

Q: And the “signal, direct binding Salmonella assay” value (E. coli; 0.5% SDS, conjugate 1:100, 10^6 E. coli, black and white plate, tube luminometer)?
A: 922 ± 78

Q: And the “signal, direct binding Salmonella assay” value (E. coli; 0.5% SDS, conjugate 1:100, 10^6 E. coli, white plate, Lucy I)?
A: 4,574 ± 1,885

Q: And the “signal, direct binding Salmonella assay” value (E. coli; 0.5% SDS, conjugate 1:150, 10^6 E. coli, black and white plate, tube luminometer)?
A: 707 ± 11

Q: What about the “signal, release and detection” value (L. innocua; 0.1% SDS) of the same compound?
A: 7863 relative light units

Q: And the “signal, release and detection” value (L. innocua; 0.5% SDS)?
A: 8051 relative light units

— patent US20110159515A1, “COMPOSITIONS AND METHODS FOR THE RAPID GROWTH AND DETECTION OF MICROORGANISMS” (SOLUS SCIENTIFIC SOLUTIONS LIMITED, priority 2008, published 2011)
